Series [1] deals with HT-29. Nature of the series: Anti-necroptic activity in human HT-29 cells assessed as inhibition of TSZ induced necroptosis measured after 12 hrs by celltiter-glo luminescent cell viability assay. Type of series: functional, cell-based. The conditions noted are these: dose 0.195-200 nM, DDE = dose-dependent effect. Background: Cellular ATP, detected with luciferase, serves as a proxy for viable cell number.

For series [2], the system named is L929. Nature of the series: Anti-necroptic activity in mouse L929 cells assessed as inhibition of TZ induced necroptosis pretreated with compound followed by TZ addition and measured after 12 hrs by celltiter-glo luminescent cell viability assay. It counts as functional, cell-based. The conditions noted are these: dose 0.078-10 µM, DDE = dose-dependent effect.

Series [3] deals with Mus musculus. The experiment in a line: Anti-necroptic activity against mTNFalpha-induced systemic inflammatory response syndrome C57BL/6J mouse model assessed as protection of body temperature pretreated with compound at 5 to 15 mg/kg, IG administered as single dose followed by mTNFalpha injection measured after 2 to 3 hrs. It counts as functional, organism-based. The conditions noted are these: dose 5-15 mg/kg, time 2-3 hrs.

In series [4] the test system is Mus musculus. The experiment in a line: Anti-necroptic activity against mTNFalpha induced C57BL/6J mouse systemic inflammatory response syndrome model assessed as survival rate pretreated with compound at 10 mg/kg, IG administered as single dose followed by mTNFalpha injection and measured over 60 hrs. It counts as functional.
Series [5] deals with Receptor-interacting serine/threonine-protein kinase 3 (Homo sapiens) (UniProt Q9Y572). Nature of the series: Inhibition of RIPK3 phosphorylation in TSZ-induced human HT-29 cells pretreated with compound followed by TSZ stimulation and measured after 6 hrs by immunoblotting analysis. It counts as cell-based. The conditions noted are these: dose 0.5-20 nM, DDE = dose-dependent effect.
Chain of Receptor-interacting serine/threonine-protein kinase 3 (Homo sapiens) (Q9Y572 whole entry, looked up): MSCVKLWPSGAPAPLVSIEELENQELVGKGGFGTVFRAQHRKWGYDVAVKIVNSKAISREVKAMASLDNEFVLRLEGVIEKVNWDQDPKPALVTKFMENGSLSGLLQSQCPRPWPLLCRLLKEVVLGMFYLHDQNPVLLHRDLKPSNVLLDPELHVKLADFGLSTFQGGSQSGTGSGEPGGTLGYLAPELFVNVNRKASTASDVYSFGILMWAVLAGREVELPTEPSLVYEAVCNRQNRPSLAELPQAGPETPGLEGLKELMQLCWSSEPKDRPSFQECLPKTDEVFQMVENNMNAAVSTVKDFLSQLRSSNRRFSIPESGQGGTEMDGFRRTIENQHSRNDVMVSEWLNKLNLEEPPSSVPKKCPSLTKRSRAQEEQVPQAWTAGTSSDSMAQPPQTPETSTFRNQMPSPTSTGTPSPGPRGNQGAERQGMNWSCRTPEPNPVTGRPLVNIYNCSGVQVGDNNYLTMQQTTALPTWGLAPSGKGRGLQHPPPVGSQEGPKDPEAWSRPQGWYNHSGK

For series [6], the system named is HT-29. The experiment in a line: Inhibition of RIPK1-RIPK3-MLKL pathway in TSZ induced human HT-29 cells assessed as reduction in necrosome formation at 10 nM measured after 6 hrs by Western blot analysis. It counts as cell-based. A general note: In western blotting, separated proteins are transferred to a membrane and probed.
Series [7] can be described thus: Cytotoxicity against human HT-29 cells assessed as reduction in cell viability. It counts as toxicity, cell-based.
Series [8] deals with T1, Mixed lineage kinase domain-like protein (Homo sapiens) (UniProt Q8NB16).
T1 sequence (whole entry): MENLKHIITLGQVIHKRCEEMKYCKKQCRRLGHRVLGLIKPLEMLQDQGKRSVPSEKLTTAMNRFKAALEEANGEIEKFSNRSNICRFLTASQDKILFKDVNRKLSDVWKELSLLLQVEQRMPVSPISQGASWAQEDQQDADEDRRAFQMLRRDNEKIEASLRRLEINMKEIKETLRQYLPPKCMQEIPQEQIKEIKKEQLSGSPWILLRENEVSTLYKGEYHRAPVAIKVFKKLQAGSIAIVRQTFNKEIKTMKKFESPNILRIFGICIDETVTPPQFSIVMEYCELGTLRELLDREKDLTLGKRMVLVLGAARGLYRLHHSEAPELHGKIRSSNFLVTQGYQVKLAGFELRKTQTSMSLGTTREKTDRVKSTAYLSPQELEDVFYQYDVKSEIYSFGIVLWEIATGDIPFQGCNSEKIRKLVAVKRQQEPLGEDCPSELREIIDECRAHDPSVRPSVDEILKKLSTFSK
The experiment in a line: Inhibition of downstream MLKL phosphorylation in TSZ-induced human HT-29 cells at 10 nM pretreated with compound followed by TSZ stimulation and measured after 2 to 6 hrs by immunoblotting analysis. Type of series: cell-based. The conditions noted are these: time 2-6 hrs.

Series [9] deals with T2, Receptor-interacting serine/threonine-protein kinase 1 (Homo sapiens) (UniProt Q13546).
T2 sequence (whole entry): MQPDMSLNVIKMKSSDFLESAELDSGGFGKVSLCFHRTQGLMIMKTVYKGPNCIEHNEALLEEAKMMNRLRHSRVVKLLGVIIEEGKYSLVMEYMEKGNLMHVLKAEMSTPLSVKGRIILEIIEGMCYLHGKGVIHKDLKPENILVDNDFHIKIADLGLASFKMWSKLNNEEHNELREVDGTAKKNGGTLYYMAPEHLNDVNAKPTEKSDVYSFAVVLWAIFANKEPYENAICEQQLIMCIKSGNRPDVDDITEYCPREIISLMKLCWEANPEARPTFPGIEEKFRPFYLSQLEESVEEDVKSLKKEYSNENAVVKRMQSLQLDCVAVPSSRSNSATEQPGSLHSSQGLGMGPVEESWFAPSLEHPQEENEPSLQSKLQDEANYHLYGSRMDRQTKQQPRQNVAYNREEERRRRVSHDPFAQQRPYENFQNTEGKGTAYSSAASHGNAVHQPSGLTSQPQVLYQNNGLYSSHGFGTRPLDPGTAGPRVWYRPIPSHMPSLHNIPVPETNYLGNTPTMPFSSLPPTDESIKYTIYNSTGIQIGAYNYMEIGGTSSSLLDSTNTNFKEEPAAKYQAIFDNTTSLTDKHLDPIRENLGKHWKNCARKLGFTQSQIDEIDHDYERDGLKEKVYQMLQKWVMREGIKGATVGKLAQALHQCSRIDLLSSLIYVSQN
Nature of the series: Inhibition of RIPK1 phosphorylation in TSZ-induced human HT-29 cells pretreated with compound followed by TSZ stimulation and measured after 6 hrs by immunoblotting analysis. It counts as cell-based. The conditions noted are these: dose 0.5-20 nM, DDE = dose-dependent effect.

The target in series [10] is T2, Receptor-interacting serine/threonine-protein kinase 1 (Homo sapiens). The experiment in a line: Inhibition of RIPK1 phosphorylation in TSZ-induced human HT-29 cells at 2 to 4 nM pretreated with compound followed by TSZ stimulation and measured after 6 hrs by immunoblotting analysis. The conditions noted are these: dose 2-4 nM. Type of series: cell-based.
Series [11] has as its target Receptor-interacting serine/threonine-protein kinase 3 (Homo sapiens) (UniProt Q9Y572). Nature of the series: Inhibition of RIPK3 phosphorylation in TSZ-induced human HT-29 cells at 10 nM pretreated with compound followed by TSZ stimulation and measured after 2 to 6 hrs by immunoblotting analysis. It counts as cell-based. The conditions noted are these: time 2-6 hrs.

In series [12] the target is T3, Receptor-interacting serine/threonine-protein kinase 1 (Homo sapiens, UniProt Q13546).
T3 sequence (Q13546 whole entry): T2 sequence (whole entry)
Nature of the series: Binding affinity to wild-type human partial length RIPK1 (M1 to K305 residues) expressed in bacterial expression system incubated for 1 hr under shaking condition by Kinomescan method.

Series [13] has as its system U-937. Nature of the series: Anti-necroptic activity in human U-937 cells assessed as inhibition of TSZ induced necroptosis pretreated with compound followed by TSZ addition ans measured after 12 hrs by celltiter-glo luminescent cell viability assay. It counts as functional, cell-based. The conditions noted are these: dose 0.312-200 nM, DDE = dose-dependent effect.

For series [14], the system named is Mus musculus. The experiment in a line: Anti-necroptic activity against mTNFalpha induced C57BL/6J mouse systemic inflammatory response syndrome model assessed as survival rate pretreated with compound at 5 mg/kg, IG administered as single dose followed by mTNFalpha injection and measured over 60 hrs. It counts as functional.
The test system of series [15] is HT-29. Nature of the series: Anti-necroptic activity in human HT-29 cells assessed as inhibition of TCZ induced necroptosis measured after 16 hrs by celltiter-glo luminescent cell viability assay. The conditions noted are these: dose 0.781-200 nM, DDE = dose-dependent effect. Type of series: functional, cell-based.
Series [16] has as its target Receptor-interacting serine/threonine-protein kinase 3 (Homo sapiens) (UniProt Q9Y572). The experiment in a line: Inhibition of RIPK3 phosphorylation in TSZ-induced human HT-29 cells at 2 to 4 nM pretreated with compound followed by TSZ stimulation and measured after 6 hrs by immunoblotting analysis. It counts as cell-based. The conditions noted are these: dose 2-4 nM.

The target in series [17] is T1, Mixed lineage kinase domain-like protein (Homo sapiens). The experiment in a line: Inhibition of MLKL phosphorylation in TSZ-induced human HT-29 cells at 2 to 4 nM pretreated with compound followed by TSZ stimulation and measured after 6 hrs by immunoblotting analysis. It counts as cell-based. The conditions noted are these: dose 2-4 nM.
Series [18] deals with Mus musculus. Nature of the series: Anti-necroptic activity against mTNFalpha induced C57BL/6J mouse systemic inflammatory response syndrome model assessed as survival rate pretreated with compound at 15 mg/kg, IG administered as single dose followed by mTNFalpha injection and measured over 60 hrs. Type of series: functional.
Series [19] has as its target T2, Receptor-interacting serine/threonine-protein kinase 1 (Homo sapiens). The experiment in a line: Inhibition of RIPK1 phosphorylation in TSZ-induced human HT-29 cells at 10 nM pretreated with compound followed by TSZ stimulation and measured after 2 to 6 hrs by immunoblotting analysis. It counts as cell-based. The conditions noted are these: time 2-6 hrs.
In series [20] the test system is HT-29. The experiment in a line: Anti-necroptic activity in human HT-29 cells assessed as inhibition of TSZ induced necroptosis measured after 16 to 24 hrs by celltiter-glo luminescent cell viability assay. Type of series: functional, cell-based.
In series [21] the target is T1, Mixed lineage kinase domain-like protein (Homo sapiens). The experiment in a line: Inhibition of MLKL phosphorylation in TSZ-induced human HT-29 cells pretreated with compound followed by TSZ stimulation and measured after 6 hrs by immunoblotting analysis. It counts as cell-based. The conditions noted are these: dose 0.5-20 nM, DDE = dose-dependent effect.
The target of series [22] is T2, Receptor-interacting serine/threonine-protein kinase 1 (Homo sapiens). Nature of the series: Inhibition of RIPK1 phosphorylation in TSZ-induced human HT-29 cells at 20 nM pretreated with compound followed by TSZ stimulation and measured after 2 to 6 hrs by immunoblotting analysis. The conditions noted are these: time 2-6 hrs. Type of series: cell-based.
Series [23] deals with Receptor-interacting serine/threonine-protein kinase 3 (Homo sapiens) (UniProt Q9Y572). The experiment in a line: Inhibition of RIPK3 phosphorylation in TSZ-induced human HT-29 cells at 20 nM pretreated with compound followed by TSZ stimulation and measured after 2 to 6 hrs by immunoblotting analysis. It counts as cell-based. The conditions noted are these: time 2-6 hrs.
The test system of series [24] is Mus musculus. The experiment in a line: Anti-necroptic activity against mTNFalpha-induced systemic inflammatory response syndrome C57BL/6J mouse model assessed as protection of body temperature pretreated with compound at 5 to 20 mg/kg, IG administered as single dose followed by mTNFalpha injection measured after 2 to 3 hrs. Type of series: functional, organism-based. The conditions noted are these: dose 5-20 mg/kg, time 2-3 hrs.

The test system of series [25] is Mus musculus. The experiment in a line: Anti-necroptic activity against mTNFalpha induced C57BL/6J mouse systemic inflammatory response syndrome model assessed as survival rate pretreated with compound at 5 to 20 mg/kg, IG administered as single dose followed by mTNFalpha injection and measured over 60 hrs. Type of series: functional. The conditions noted are these: dose 5-20 mg/kg.

Series [26] has as its system HT-29. The experiment in a line: Inhibition of RIPK1-RIPK3-MLKL pathway in TSZ induced human HT-29 cells assessed as reduction in necrosome formation at 20 nM measured after 6 hrs by Western blot analysis. Type of series: cell-based.
The target of series [27] is T1, Mixed lineage kinase domain-like protein (Homo sapiens). The experiment in a line: Inhibition of MLKL phosphorylation in TSZ-induced human HT-29 cells at 5 to 20 nM pretreated with compound followed by TSZ stimulation and measured after 6 hrs by immunoblotting analysis. It counts as cell-based. The conditions noted are these: dose 5-20 nM.
The target is the same in series [28]. Nature of the series: Inhibition of downstream MLKL phosphorylation in TSZ-induced human HT-29 cells at 20 nM pretreated with compound followed by TSZ stimulation and measured after 2 to 6 hrs by immunoblotting analysis. It counts as cell-based. The conditions noted are these: time 2-6 hrs.
Series [29] has as its target T2, Receptor-interacting serine/threonine-protein kinase 1 (Homo sapiens). The experiment in a line: Inhibition of RIPK1 phosphorylation in TSZ-induced human HT-29 cells at 5 to 20 nM pretreated with compound followed by TSZ stimulation and measured after 6 hrs by immunoblotting analysis. The conditions noted are these: dose 5-20 nM. It counts as cell-based.
The target of series [30] is Receptor-interacting serine/threonine-protein kinase 3 (Homo sapiens) (UniProt Q9Y572). Nature of the series: Inhibition of RIPK3 phosphorylation in TSZ-induced human HT-29 cells at 5 to 20 nM pretreated with compound followed by TSZ stimulation and measured after 6 hrs by immunoblotting analysis. The conditions noted are these: dose 5-20 nM. It counts as cell-based.

Activity calls are given as the source filed them. No cut-off for these calls is given here. Where only a bound is given, the exact number is not on record here.

For the molecule `CN1C(=S)[C@@H](NC(=O)c2nc(Cc3ccccc3)n(C)n2)COc2ccccc21`, the Activity entry in series [1] is “Dde”; in series [2], “Dde”; in series [4], 100%; in series [13] it was “Dde”; in series [14], 70%; in [15], “Dde”. In addition, in [18], the Activity is on record as 100%. Further, the result in series [3] was Active. Also, the inhibition entry in series [5] was “Dde”; in [9] it was “Dde”; in series [10], 100%; in series [11], 100%; in series [16], 100%; in series [17], 100%. Moreover, the inhibition in [19] is 100%; in series [21], “Dde”. The inhibition result in series [6] and in [8] was “Active” throughout. In series [7], the CC50 is > 100 µM. This molecule also gave a Kd in series [12] of 31 nM. Besides, the EC50 in [20] was found to be 2.5 nM.
`CN1C(=S)[C@@H](NC(=O)c2nc(Cc3ccccc3)n(CCF)n2)COc2ccccc21`: the inhibition in [22] is 100%; in [23], 100%; in series [5], “Dde”; in series [9], “Dde”; in series [27] it was 100%; in series [29], 100%. In addition, the inhibition result in series [21] was “Dde”; in [30] it was 100%. Also, the Activity result in series [1] is “Dde”; in series [2], “Dde”; in series [25], 90%; in series [13], “Dde”; in series [15], “Dde”. Also, in series [24], the outcome was Active. In addition, in [7], the CC50 was > 100 µM. The inhibition result in series [26] and in [28] was “Active” each time. In series [12], this molecule returned an equilibrium dissociation constant (Kd) of 60 nM. In addition, the EC50 in series [20] was 8.9 nM.

As a reminder, the inhibition is the percentage by which the read-out fell short of the control. As a reminder, the CC50 is the concentration at which the toxic effect on the cells reaches its halfway point. For orientation: Kd means a measure of binding affinity in units of concentration. One may read the EC50 as the midpoint of the concentration-response curve.

For the origin of these results see ChEMBL document CHEMBL5143660, “Investigation on the chemical space of the substituted triazole thio-benzoxazepinone RIPK1 inhibitors” (Eur J Med Chem, 2022).
